Measured values taken from US9833497B2, “Human originated EGF domain proteins and use of the same” (CHENGDU SOURCEBIO LIMITED-LIABILITY COMPANY, priority 2013, dated 2017).

Assays:
Type in all cases: cell-based
E. coli DH5α = test: Antibacterial activity: MIC and growth curve against E. coli DH5α in 96-well plate; conditions: minimal inhibitory concentration against E. coli DH5α; 96-well plate, 5×10^5 CFU/mL, 37° C., judged after 8 h
Method in brief: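 Log-phase bacteria (OD600 ~0.5) resuspended in LB at 5×10^5 CFU/mL, exposed to recombinant protein at 50, 25, 12.5 μg/mL final in triplicate, 37 °C shaking at 175 rpm. OD600 read every 30 min; MIC is lowest concentration showing no growth.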

E. coli BL21 = test: MIC against Gram-negative bacteria: E. coli BL21; conditions: 5×10^5 CFU/mL
Method in brief: (§1)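 Bacteria grown in LB at 37° C with shaking to McFarland 0.5, pelleted and resuspended in fresh LB, then seeded at 5×10^5 CFU/mL per well. Purified recombinant human EGF domain proteins were two-fold serially diluted in triplicate and plates shaken at 37° C, 175 rpm. MIC is the lowest protein concentration with no bacterial growth.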

Pseudomonas aeruginosa = test: MIC against Gram-negative bacteria: Pseudomonas aeruginosa; conditions: 5×10^5 CFU/mL
Method in brief: as §1

Klebsiella pneumonia = test: MIC against Gram-negative bacteria: Klebsiella pneumonia; conditions: 5×10^5 CFU/mL
Method in brief: as §1

Enterobacter cloacae = test: MIC against Gram-negative bacteria: Enterobacter cloacae; conditions: 5×10^5 CFU/mL
Method in brief: as §1

Aeromonas hydrophila = test: MIC against Gram-negative bacteria: Aeromonas hydrophila; conditions: 5×10^5 CFU/mL
Method in brief: as §1

Citrobacter diversus = test: MIC against Gram-negative bacteria: Citrobacter diversus; conditions: 5×10^5 CFU/mL
Method in brief: as §1

Moraxella catarrhalis = test: MIC against Gram-negative bacteria: Moraxella catarrhalis; conditions: 5×10^5 CFU/mL
Method in brief: as §1

Proteus mirabilis = test: MIC against Gram-negative bacteria: Proteus mirabilis; conditions: 5×10^5 CFU/mL
Method in brief: as §1

Proteus vulgaris = test: MIC against Gram-negative bacteria: Proteus vulgaris; conditions: 5×10^5 CFU/mL
Method in brief: as §1

Serratia marcescens = test: MIC against Gram-negative bacteria: Serratia marcescens; conditions: 5×10^5 CFU/mL
Method in brief: as §1

[1] = E. coli BL21, 10 h cultivation at 37° C.
[2] = 10 h cultivation at 37° C., two-fold serial dilution

Substance: PRT750 (DIDECQVAPGEAPTCDHHCHNHLGGFYCSCRAGYVLHRNKRTCS; listed as Homo sapiens)
- MIC (E. coli DH5α): 25 µg/mL
- MIC (μg/mL) E. coli BL21 (E. coli BL21; [1]): 12.5 µg/mL
- MIC (μg/mL) P. aeruginosa (Pseudomonas aeruginosa; 10 h cultivation at 37° C.): 50 µg/mL
- MIC (μg/mL) K. pneumonia (Klebsiella pneumonia; 10 h cultivation at 37° C.): 25 µg/mL
- MIC (μg/mL) E. cloacae (Enterobacter cloacae; 10 h cultivation at 37° C.): 12.5 µg/mL
- MIC (μg/mL) A. hydrophila (Aeromonas hydrophila; 10 h cultivation at 37° C.): 25 µg/mL
- MIC (μg/mL) C. diversus (Citrobacter diversus; 10 h cultivation at 37° C.): 50 µg/mL
- MIC (μg/mL) M. catarrhalis (Moraxella catarrhalis; 10 h cultivation at 37° C.): 12.5 µg/mL
- MIC (μg/mL) P. mirabilis (Proteus mirabilis; 10 h cultivation at 37° C.): 50 µg/mL
- MIC (μg/mL) P. vulgaris (Proteus vulgaris; 10 h cultivation at 37° C.): 12.5 µg/mL
- MIC (μg/mL) S. marcescens (Serratia marcescens; 10 h cultivation at 37° C.): 50 µg/mL

Substance: PRT446 (DVDECVGLQPVCPQGTTCINTGGSFQCVSPECPEGSGNVSYVKTSPFQCE; listed as Homo sapiens)
- MIC (E. coli DH5α): 12.5 µg/mL
- MIC against E. coli BL21 (E. coli BL21; 96-well plate, 37° C., 10 h): 12.5 µg/mL
- MIC against P. aeruginosa (Pseudomonas aeruginosa; 96-well plate, 37° C., 10 h): 12.5 µg/mL
- MIC against K. pneumonia (Klebsiella pneumonia; 96-well plate, 37° C., 10 h): 50 µg/mL
- MIC against E. cloacae (Enterobacter cloacae; 96-well plate, 37° C., 10 h): 12.5 µg/mL
- MIC against A. hydrophila (Aeromonas hydrophila; 96-well plate, 37° C., 10 h): 50 µg/mL
- MIC against C. diversus (Citrobacter diversus; 96-well plate, 37° C., 10 h): 12.5 µg/mL
- MIC against M. catarrhalis (Moraxella catarrhalis; 96-well plate, 37° C., 10 h): 50 µg/mL
- MIC against P. mirabilis (Proteus mirabilis; 96-well plate, 37° C., 10 h): 25 µg/mL
- MIC against P. vulgaris (Proteus vulgaris; 96-well plate, 37° C., 10 h): 12.5 µg/mL
- MIC against S. marcescens (Serratia marcescens; 96-well plate, 37° C., 10 h): 25 µg/mL

Substance: PRT1170 (RNSSCLPNPCHNGGTCVVNGESFTCVCKEGWEGPICA; listed as Homo sapiens)
- MIC (E. coli DH5α): 25 µg/mL
- MIC E. coli BL21 (E. coli BL21; [2]): 12.5 µg/mL
- MIC P. aeruginosa (Pseudomonas aeruginosa; [2]): 25 µg/mL
- MIC K. pneumonia (Klebsiella pneumonia; [2]): 12.5 µg/mL
- MIC E. cloacae (Enterobacter cloacae; [2]): 100 µg/mL
- MIC A. hydrophila (Aeromonas hydrophila; [2]): 50 µg/mL
- MIC C. diversus (Citrobacter diversus; [2]): 12.5 µg/mL
- MIC M. catarrhalis (Moraxella catarrhalis; [2]): 50 µg/mL
- MIC P. mirabilis (Proteus mirabilis; [2]): 12.5 µg/mL
- MIC P. vulgaris (Proteus vulgaris; [2]): 12.5 µg/mL
- MIC S. marcescens (Serratia marcescens; [2]): 25 µg/mL

Substance: PRT151 (GCKYLSDINITRYNINCRENRACNELFHCQCDPGYAPPDCE; listed as Homo sapiens)
- MIC (E. coli DH5α): 12.5 µg/mL
- MIC (μg/mL) E. coli BL21 (E. coli BL21; [1]): 50 µg/mL
- MIC (μg/mL) P. aeruginosa (Pseudomonas aeruginosa; 10 h cultivation at 37° C.): 12.5 µg/mL
- MIC (μg/mL) K. pneumonia (Klebsiella pneumonia; 10 h cultivation at 37° C.): 50 µg/mL
- MIC (μg/mL) E. cloacae (Enterobacter cloacae; 10 h cultivation at 37° C.): 12.5 µg/mL
- MIC (μg/mL) A. hydrophila (Aeromonas hydrophila; 10 h cultivation at 37° C.): 50 µg/mL
- MIC (μg/mL) C. diversus (Citrobacter diversus; 10 h cultivation at 37° C.): 25 µg/mL
- MIC (μg/mL) M. catarrhalis (Moraxella catarrhalis; 10 h cultivation at 37° C.): 12.5 µg/mL
- MIC (μg/mL) P. mirabilis (Proteus mirabilis; 10 h cultivation at 37° C.): 25 µg/mL
- MIC (μg/mL) P. vulgaris (Proteus vulgaris; 10 h cultivation at 37° C.): 50 µg/mL
- MIC (μg/mL) S. marcescens (Serratia marcescens; 10 h cultivation at 37° C.): 12.5 µg/mL

Substance: PRT218 (DINECDASNQCAQQCYNILGSFICQCNQGYELSSDRLNCE; listed as Homo sapiens)
- MIC (E. coli DH5α): 100 µg/mL
- MIC (μg/mL) E. coli BL21 (E. coli BL21; [1]): 50 µg/mL
- MIC (μg/mL) P. aeruginosa (Pseudomonas aeruginosa; 10 h cultivation at 37° C.): 50 µg/mL
- MIC (μg/mL) K. pneumonia (Klebsiella pneumonia; 10 h cultivation at 37° C.): 50 µg/mL
- MIC (μg/mL) E. cloacae (Enterobacter cloacae; 10 h cultivation at 37° C.): 25 µg/mL
- MIC (μg/mL) A. hydrophila (Aeromonas hydrophila; 10 h cultivation at 37° C.): 12.5 µg/mL
- MIC (μg/mL) C. diversus (Citrobacter diversus; 10 h cultivation at 37° C.): 25 µg/mL
- MIC (μg/mL) M. catarrhalis (Moraxella catarrhalis; 10 h cultivation at 37° C.): 50 µg/mL
- MIC (μg/mL) P. mirabilis (Proteus mirabilis; 10 h cultivation at 37° C.): 25 µg/mL
- MIC (μg/mL) P. vulgaris (Proteus vulgaris; 10 h cultivation at 37° C.): 50 µg/mL
- MIC (μg/mL) S. marcescens (Serratia marcescens; 10 h cultivation at 37° C.): 25 µg/mL

Substance: PRT1404 (RAACPVLCSGNGQYSKGRCLCFSGWKGTECD; listed as Homo sapiens)
- MIC (E. coli DH5α): 12.5 µg/mL
- MIC against E. coli BL21 (E. coli BL21; [1]): 25 µg/mL
- MIC against P. aeruginosa (Pseudomonas aeruginosa; Pseudomonas aeruginosa, 10 h cultivation at 37° C.): 50 µg/mL
- MIC against K. pneumonia (Klebsiella pneumonia; Klebsiella pneumonia, 10 h cultivation at 37° C.): 25 µg/mL
- MIC against E. cloacae (Enterobacter cloacae; Enterobacter cloacae, 10 h cultivation at 37° C.): 12.5 µg/mL
- MIC against A. hydrophila (Aeromonas hydrophila; Aeromonas hydrophila, 10 h cultivation at 37° C.): 25 µg/mL
- MIC against C. diversus (Citrobacter diversus; Citrobacter diversus, 10 h cultivation at 37° C.): 50 µg/mL
- MIC against M. catarrhalis (Moraxella catarrhalis; Moraxella catarrhalis, 10 h cultivation at 37° C.): 25 µg/mL
- MIC against P. mirabilis (Proteus mirabilis; Proteus mirabilis, 10 h cultivation at 37° C.): 12.5 µg/mL
- MIC against P. vulgaris (Proteus vulgaris; Proteus vulgaris, 10 h cultivation at 37° C.): 25 µg/mL
- MIC against S. marcescens (Serratia marcescens; Serratia marcescens, 10 h cultivation at 37° C.): 50 µg/mL

Substance: PRT1241 (WSSTCRRPCQCNTAAARCEQATGACVCKPGWWGRRCS; listed as Homo sapiens)
- MIC (E. coli DH5α): 50 µg/mL
- MIC against E. coli BL21 (E. coli BL21; E. coli BL21, 96-well plate, 37° C., 10 h): 25 µg/mL
- MIC against P. aeruginosa (Pseudomonas aeruginosa; Pseudomonas aeruginosa, 96-well plate, 37° C., 10 h): 12.5 µg/mL
- MIC against K. pneumonia (Klebsiella pneumonia; Klebsiella pneumonia, 96-well plate, 37° C., 10 h): 50 µg/mL
- MIC against E. cloacae (Enterobacter cloacae; Enterobacter cloacae, 96-well plate, 37° C., 10 h): 12.5 µg/mL
- MIC against A. hydrophila (Aeromonas hydrophila; Aeromonas hydrophila, 96-well plate, 37° C., 10 h): 50 µg/mL
- MIC against C. diversus (Citrobacter diversus; Citrobacter diversus, 96-well plate, 37° C., 10 h): 12.5 µg/mL
- MIC against M. catarrhalis (Moraxella catarrhalis; Moraxella catarrhalis, 96-well plate, 37° C., 10 h): 25 µg/mL
- MIC against P. mirabilis (Proteus mirabilis; Proteus mirabilis, 96-well plate, 37° C., 10 h): 50 µg/mL
- MIC against P. vulgaris (Proteus vulgaris; Proteus vulgaris, 96-well plate, 37° C., 10 h): 25 µg/mL
- MIC against S. marcescens (Serratia marcescens; Serratia marcescens, 96-well plate, 37° C., 10 h): 12.5 µg/mL
